One test addresses SARM1 TIR (Homo sapiens (Human), UniProt Q6SZW1). Nature of the test: SARM1 TIR-based assay (bacterially expressed, tagged SARM1 TIR fragment on beads). The conditions noted are these: for Inhibitor: inhibitor of SARM1 TIR NAD cleavage activity; for Substrate: substrate of SARM1 TIR NAD cleavage activity. The format is biochemical. From the text:
The present Example describes a SARM1 TIR-based Assay. This assay is similar to the assay described in Example 1, but allows for the identification and/or characterization of compounds that directly interact with the TIR domain, whereas the assay described in Example 1 can also identify compounds that disrupt SAM domain interactions. This assay makes use of the bacterial expression of a tagged version of the SARM1 TIR fragment that can be affinity purified. Displaying this artificial SARM1 TIR domain on a solid surface (i.e. affinity beads) generates an active NAD+ cleavage enzyme.
The TIR domain of SARM1 was tagged with a tandem STREP-TAG® at the N-terminus, and a polyhistidine tag at the C-terminus, and was cloned into a pET30a+ plasmid. The construct was then transformed into SHuffle® T7 Express Competent E. coli (New England BioLabs, Ipswich, MA) and single colonies were grown overnight. The next day, cultures were diluted in LB media, grown at 30° C. until they reached A600=0.4-0.8, when IPTG (0.5 mM final concentration) was added. The bacteria were grown for an additional 4 h, pelleted by centrifugation, washed with PBS and stored at −80° C. For protein purification, the frozen bacterial pellet was thawed on ice, resuspended in binding buffer (without protease inhibitors) and incubated with 100 μg/mL lysozyme for 15 min on ice. Protease inhibitor cocktail was then added and the cells were lysed by sonication.
The SARM1 TIR protein was first purified by Strep Tag affinity methods where bacterial lysates were incubated with […] (STREP-TACTIN®, IBA GmBH, Gottingen Germany) type 3 XT beads suspension (IBA Lifesciences) for 30 min. The beads were then washed three times with binding buffer, and bound proteins were eluted from MagStrep type 3 XT beads with 22.5 mM biotin for 25 min. Supernatant containing the eluted protein was separated from MagStrep beads, and incubated with 10 μL Co2+ DYNABEAD® (ThermoFisher Scientific, Waltham, MA) suspension for 30 min to bind SARM1-TIR proteins via the His tag. The beads were then washed at least two times with binding buffer and resuspended in 100 μL of binding buffer for NADase assay.
Ten microliters of purified SARM1-TIR laden beads were incubated with 5 μM NAD+ in reaction buffer (92.4 mM NaCl and 0.64×PBS). Reactions were carried out at 25° C. for the indicated amount of time and stopped by addition of 1M of perchloric acid (HClO4) and placing the tube on ice. NAD+ metabolites were extracted using HClO4/K2CO3 method and quantified by HPLC (see metabolite measurement below). For LC-MS/MS analysis, the extraction was performed using 50% methanol in distilled water and chloroform (see LC-MS/MS metabolite measurement below). […] Select potent inhibitors (622608, 622689) identified from SARM1 SAM-TIR lysate screen were added to the reaction at 5 μM. NAD normalized to control at 0 min.
Metabolites were isolated from enzyme reaction mixture by extracting with 1M HClO4, then neutralized with 3M K2CO3, and followed by separation by centrifugation. The supernatant (90 μL) containing the extracted metabolites was mixed with 0.5M Potassium Phosphate buffer (10 μL) and metabolites were analyzed by HPLC (Nexera X2) with KINETEX® (100×3 mm, 2.6 μm; PHENOMENEX®) column and metabolites are monitored with absorbance at 254 nm. Internal standards for NAD+, Nicotinamide (Nam), ADP Ribose (ADPR) were used to generate standard curves for quantification of the respective compounds. The levels for each compound in each experimental sample was normalized to the 0 min time point that was analyzed concurrently.
These analogs were tested using an assay that makes use of a bacterially-expressed tagged version of the SARM1 TIR fragment, as described in Example 2. Displaying this artificial SARM1 TIR domain on a solid surface (i.e. affinity beads) generates an active NAD+ cleavage enzyme.

In a further test the target is human SARM1 SAM-TIR (Homo sapiens (Human), UniProt Q6SZW1). Nature of the test: biochemical. Particulars: for ADPR Production (%) / NAD Consumption (%): single point screening at 150 μM.
For a further test, the target named is SARM1 SAM-TIR lysate (Homo sapiens (Human), UniProt Q6SZW1). As to the kind of experiment: HPLC-based SARM1 SAM-TIR NADase assay 1 (inhibitor screen, NAD+/ADPR ratio). It is filed as biochemical. The method, then:
NRK1-HEK293T cells were seeded onto 150 cm^2 plates at 20×10^6 cells per plate. The next day, the cells were transfected with 15 μg FCIV-SST (SAM-TIR expression plasmid, SEQ ID NO: 9) using X-[…]™ 9 DNA Transfection Reagent (Roche product #06365787001). The cultures were supplemented with 1 mM NR at time of transfection to minimize toxicity from SAM-TIR overexpression. Forty-eight hours after transfection, cells were harvested, pelleted by centrifugation at 1,000 rpm (Sorvall ST 16R centrifuge, Thermo Fisher), and washed once with cold PBS (0.01 M phosphate buffered saline NaCl 0.138 M; KCl 0.0027 M; pH 7.4). The cells were resuspended in PBS with protease inhibitors (cOmplete™ protease inhibitor cocktail, Roche product #11873580001) and cell lysates were prepared by sonication (Branson Sonifer 450, output=3, 20 episodes of stroke). […] Protein concentration was determined by the Bicinchoninic (BCA) method and used to normalize lysate concentrations. […]
Reaction mixtures were prepared on ice by mixing SARM1 SAM-TIR cell lysate (0.14 μg total protein), compound stock (5 μM final concentration), and PBS (pH 7.4) to a final volume of 12 μl. […] The supernatant was transferred and analyzed by HPLC (Shimadzu Nexera X2) with KINETEX® (100×3 mm, 2.6 μm; PHENOMENEX®) column and metabolites were monitored with absorbance at 254 nm.
To identify inhibitors of SARM1 NADase activity, the levels of NAD+ and the enzymatic cleavage product ADPR in the reactions were quantified by HPLC. From these values, the NAD+/ADPR ratio for each compound was calculated and the ratio used as a measure of NAD+ cleavage activity (Note: there is a small residual but detectable ADPR signal in control samples derived from the HEK293 lysate). […]
The NAD+/ADPR ratio was used to determine the NAD+ cleavage activity of the SARM1 SAM-TIR lysate using the HPLC based assay 1. It will be appreciated that any precise, quantitative method of measuring NAD+ levels could be used for the detection of SARM1 NADase activity. […]

Where [1] appears, read: 10 point curve 0.01-250 uM, read-out: IC50 (μM, ADPR Production).
Setting [2] is: 10 point curve 0.01-250 uM, read-out: IC50 (μM, NAD Consumption).
[3] abbreviates: NAD consumption, 7 point curve 0-about 6 uM, read-out: IC50.

Read-outs that look alike come from different tables or passages of the source.

Chain of SARM1 SAM-TIR lysate (Q6SZW1 other isoform, or with tags, fused parts or gaps): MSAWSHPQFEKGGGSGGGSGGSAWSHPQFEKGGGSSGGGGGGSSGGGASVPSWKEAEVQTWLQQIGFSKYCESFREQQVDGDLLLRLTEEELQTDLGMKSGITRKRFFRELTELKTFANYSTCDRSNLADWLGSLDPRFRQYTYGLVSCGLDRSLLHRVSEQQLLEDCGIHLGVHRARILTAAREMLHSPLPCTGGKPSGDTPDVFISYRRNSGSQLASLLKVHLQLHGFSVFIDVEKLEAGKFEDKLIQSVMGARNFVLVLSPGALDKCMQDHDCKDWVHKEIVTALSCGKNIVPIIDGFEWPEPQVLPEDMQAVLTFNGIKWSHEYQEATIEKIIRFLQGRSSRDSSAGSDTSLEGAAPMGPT
Chain of SARM1 TIR (Q6SZW1 other isoform, or with tags, fused parts or gaps): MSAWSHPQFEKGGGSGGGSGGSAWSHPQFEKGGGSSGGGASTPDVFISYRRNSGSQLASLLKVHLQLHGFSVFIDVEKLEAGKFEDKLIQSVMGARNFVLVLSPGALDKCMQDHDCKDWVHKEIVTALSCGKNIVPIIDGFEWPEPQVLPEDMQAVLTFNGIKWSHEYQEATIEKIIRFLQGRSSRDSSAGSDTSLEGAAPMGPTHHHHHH
From the text for human SARM1 SAM-TIR: When these NRK1-expressing cells are supplemented with NR, NAD+ levels are augmented and cell viability is enhanced to enable efficient production and purification of the constitutively active human SARM1 SAM-TIR protein fragment. To express SARM1 SAM-TIR, the SARM1 N-terminal auto-inhibitory domain was deleted, keeping only the initiator Met. […] The fragment encoding the SARM1 SAM-TIR protein was cloned into the FCIV expression construct by standard methods to generate the FCIV-SST vector.
NRK1-HEK293T cells were seeded onto 150 cm^2 plates at 20×10^6 cells per plate in 25 mL growth medium comprised of 90% DMEM (Gibco 11965-084) and 10% FBS (Sigma F0926). The next day, cells were transfected by first premixing 15 ug FCIV-SST SST (SAM-TIR expression plasmid from Washington University) with 45 ul X-tremeGENE 9 DNA Transfection Reagent (Roche product #06365787001) and 750 ul OptiMEM (Gibco 31985062) and then adding this mix directly to the cells. […] Forty-eight hours after transfection, cells were harvested, pelleted by centrifugation at 1,000 rpm (Eppendorf Centrifuge 5804R, 15 Amp Version), and washed once with cold PBS (0.01 M phosphate buffered saline NaCl 0.138 M; KCl 0.0027 M; pH 7.4). The cells were resuspended in 0.5 ml PBS with protease inhibitors (Complete protease inhibitor cocktail, Roche product #11873580001). Cell lysates were prepared by sonication (Misonix Microson Ultrasonic Cell Disruptor, output=3, 20 episodes of stroke). The lysates were centrifuged at 12,000×g for 10 min at 4° C. (Eppendorf Centrifuge 5415C) to remove cell debris and the aliquots of supernatant (containing SARM1 SAM-TIR protein) were stored at −80° C. for later use. Protein concentration was determined by the Bicinchoninic (BCA) method and used to normalize lysate concentrations.
Reaction mixtures were prepared on ice by mixing 10 ul of SARM1 SAM-TIR cell lysate (320 fold dilution of lysate 11-3-2016, or 80 fold lysate dilution for assessment of time dependence) in PBS (pH 7.4) with 5 ul of compound stock. Compounds were first dissolved DMSO at 10 mM (final stock concentration). A 10 point compound dilution curve was prepared first with a 20 ul to 40 ul serial dilution in DMSO, followed by a 10 fold dilution (12 ul+108 ul) in PBS.

`CC(=O)c1cccnc1` [3-acetylpyridine]: at SARM1 TIR, the Inhibitor result is reported as “No” and the Substrate result is reported as “No”.

Take `NC(=O)c1ccc(N)nc1` [6-aminonicotinamide]: at SARM1 TIR, the Inhibitor result was “No” and the Substrate entry was “No”.

Consider `NC(=O)c1ccccc1` [Benzamide], for which, at SARM1 TIR, the Inhibitor entry was “No” and the Substrate entry is reported as “No”.

With `CN(C)c1nc(=Nc2cccc(Cl)c2)ss1` [Compound 622689], the “inhibition of NADase activity of purified SARM1 TIR” value at SARM1 TIR (compound at 5 μM, 5 μM NAD+) is reported as “inhibit NADase activity of purified SARM1 TIR”.

As to `NC(=O)C1CCCc2c1[nH]c1ccc(Cl)cc21` (stereo not shown) [Ex-527], the Substrate entry on SARM1 TIR is “No”.

By IC50 is commonly meant the concentration that gives 50% inhibition. Turning to `Cc1c(OCC(F)(F)F)ccnc1C[S+]([O-])c1nc2ccccc2[nH]1` (stereo not shown) [I^A-2, lansoprazole], the IC50 on human SARM1 SAM-TIR (setting [1]) came to 3.3 µM; at human SARM1 SAM-TIR (setting [2]), 3.5 µM.

As usually defined, the inhibition is the percentage by which the read-out fell short of the control. With `COCCCOc1ccnc(C[S+]([O-])c2nc3ccccc3[nH]2)c1C` (stereo not shown) [I^A-6, rabeprazole], the IC50 at human SARM1 SAM-TIR (setting [1]) was 3.2 µM; on human SARM1 SAM-TIR (setting [2]) it was 3.3 µM. Besides, at SARM1 SAM-TIR lysate (at 10 μM, 5 μM NAD), the inhibition at 10 µM was 95%. Further, the inhibition at 30 µM on SARM1 SAM-TIR lysate (at 30 μM, 5 μM NAD) was found to be 98.8%.

For the molecule `COc1ccc2[nH]c([S+]([O-])Cc3ncc(C)c(OC)c3C)nc2n1` (stereo not shown) [I^A-8, tenatoprazole], the concentration for half-maximal inhibition (IC50) at human SARM1 SAM-TIR (setting [1]) came to 8.7 µM; on human SARM1 SAM-TIR (setting [2]), 7.4 µM. For the same molecule, the “ADPR Production (%)” value at human SARM1 SAM-TIR is recorded as “C (“C” indicating <50%)”. Besides, the “NAD Consumption (%)” value at human SARM1 SAM-TIR is “B (“B” indicating between 50%-75%)”. The “identified as SARM1 NADase inhibitor in initial screening” value on SARM1 SAM-TIR lysate is “SARM1 NADase inhibitors”.

On to `Cc1c(OCC(F)(F)F)ccnc1CSc1nc2ccccc2[nH]1` [I^A-9, lansoprazole sulfide], for which, at human SARM1 SAM-TIR, the “ADPR Production (%)” value was “A (“A” indicating >75%)” and the “NAD Consumption (%)” value is recorded as “A (“A” indicating >75%)”.

As to `Cc1c(OCC(F)(F)F)ccnc1CS(=O)(=O)c1nc2ccccc2[nH]1` [I^A-10, lansoprazole sulfone], on human SARM1 SAM-TIR, the “ADPR Production (%)” value is “A (“A” indicating >75%)” and the “NAD Consumption (%)” value was “A (“A” indicating >75%)”.

As for `COc1ccc2c(c1)nc([S+]([O-])Cc1ncc(C)c(OC)c1C)n2C` (stereo not shown) [I^A-11, N-methyl omeprazole], at human SARM1 SAM-TIR, the “ADPR Production (%)” value is “A (“A” indicating >75%)” and the “NAD Consumption (%)” value is recorded as “A (“A” indicating >75%)”.

As for `COc1ccc2[n-]c([S+]([O-])Cc3ncc(C)c(OC)c3C)nc2c1.[Na+]` (stereo not shown) [I^A-13, sodium esomeprazole], at human SARM1 SAM-TIR, the “ADPR Production (%)” value was “B (“B” indicating between 50%-75%)” and the “NAD Consumption (%)” value is given as “A (“A” indicating >75%)”.

`CN(C)c1n/c(=N/c2cccc(Cl)c2)ss1` [I^B-1]: the IC50 on human SARM1 SAM-TIR (setting [3]) was roughly 0.7 µM.

On to `CN(C)c1n/c(=N/Cc2ccco2)ss1` [I^B-2], for which the IC50 on human SARM1 SAM-TIR (setting [3]) is roughly 0.15 µM.

As for `O=Cc1cccnc1` [Nicotinaldehyde], at SARM1 TIR, the Inhibitor entry is given as “No” and the Substrate entry is recorded as “No”.

On to `NC(=O)c1ccc[n+]([C@@H]2O[C@H](COP(=O)([O-])OP(=O)(O)OC[C@H]3O[C@@H](n4cnc5c4ncn4ccnc54)[C@H](O)[C@@H]3O)[C@@H](O)[C@H]2O)c1` [Nicotinamide 1, N6-ethenoadenine dinucleotide], for which, on SARM1 TIR, the Substrate result was “No”.

Turning to `NC(=O)c1ccc[n+](C2OC(COP(=O)(O)OP(=O)(O)OCC3OC(n4cnc5c(=O)[nH]cnc54)C(O)C3O)C(O)C2O)c1` (stereo not shown) [Nicotinamide Hypoxanthine dinucleotide], on SARM1 TIR, the Inhibitor result was “inhibitor and Yes”; the Substrate result was “substrate and Yes”.

Consider `NC(=O)C1=CN([C@@H]2O[C@H](COP(=O)(O)OP(=O)(O)OC[C@H]3O[C@@H](n4cnc5c(N)ncnc54)[C@H](OP(=O)(O)O)[C@@H]3O)[C@@H](O)[C@H]2O)C=CC1` [Nicotinamide adenine dinucleotide 2′-phosphate, reduced], for which the Inhibitor result on SARM1 TIR is reported as “Unclear”.

Regarding `NC(=S)c1cccnc1` [Thionicotinamide], on SARM1 TIR, the Inhibitor result is recorded as “No” and the Substrate result is on record as “No”.

Values taken from patent US11903935B2, “Inhibitors of SARM1 NADase activity and uses thereof” (Washington University, priority 2016, dated 2024).
